What was measured:
[1] = system: China jute (Ab); test: Test Example 6: crop plant selectivity by upland field soil treatment (soybean), herbicidal effects; format: in vivo; parameters: scale not given here; conditions: dose 6.3 g ai/10a, 21st day after application
Method: (§1) (Test on Crop Plant Selectivity by Upland Field Soil Treatment)
(§2) In a plastic pot (surface area: 600 cm^2) filled with sand, soybean (Gl), Diaitaria ciliaris (Di), green foxtail (Se), Johnsongrass (So), pale smartweed (Po), slender amaranth (Am), common lambsquarters (Ch) and China jute (Ab) were sown and covered with soil. […] The plants were then cultured in a green house, and the evaluation of the herbicidal effects and phytotoxicity was conducted on the 21st day after the application in accordance with the standards as identified in Table 47. Symbol—represents “not tested”.

[2] = system: green foxtail (Se); test: as above; format: in vivo; parameters: scale not given here; conditions: dose 6.3 g ai/10a, 21st day after application
Method: as §1, §2

[3] = system: pale smartweed (Po); test: as above; format: in vivo; parameters: scale not given here; conditions: dose 6.3 g ai/10a, 21st day after application
Method: as §1, §2

[4] = system: slender amaranth (Am); test: as above; format: in vivo; parameters: scale not given here; conditions: dose 6.3 g ai/10a, 21st day after application
Method: as §1, §2

[5] = system: common lambsquarters (Ch); test: as above; format: in vivo; parameters: scale not given here; conditions: dose 6.3 g ai/10a, 21st day after application
Method: as §1, §2

[6] = system: China jute (Ab); test: Test Example 5: crop plant selectivity by upland field soil treatment (wheat), herbicidal effects; format: in vivo; parameters: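 grade of growth control; 5 = at least 90%; 4 = 70 to 90%; 3 = 50 to 70%; 2 = 30 to 50%; 1 = 10 to 30%; 0 = under 10%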; conditions: dose 6.3 g ai/10a, 21st day after application
Method: as §1
(§3) In a plastic pot (surface area: 600 cm^2) filled with sand, wheat (Tr), Diaitaria ciliaris (Di), green foxtail (Se), pale smartweed (Po), slender amaranth (Am), common lambsquarters (Ch) and China jute (Ab) were sown and covered with soil. […] The plants were then cultured in a green house, and the evaluation of the herbicidal effects and phytotoxicity was conducted on the 21st day after the application in accordance with the standards as identified in Table 47. Symbol—represents “not tested”.

[7] = system: green foxtail (Se); test: as above; format: in vivo; parameters: scale not given here; conditions: dose 6.3 g ai/10a, 21st day after application
Method: as §1, §3

[8] = system: pale smartweed (Po); test: as above; format: in vivo; parameters: scale not given here; conditions: dose 6.3 g ai/10a, 21st day after application
Method: as §1, §3

[9] = system: slender amaranth (Am); test: as above; format: in vivo; parameters: scale not given here; conditions: dose 6.3 g ai/10a, 21st day after application
Method: as §1, §3

[10] = system: common lambsquarters (Ch); test: as above; format: in vivo; parameters: scale not given here; conditions: dose 6.3 g ai/10a, 21st day after application
Method: as §1, §3

[11] = system: China jute (Ab); test: Test Example 4: crop plant selectivity by upland field soil treatment (cotton), herbicidal effects; format: in vivo; parameters: scale not given here; conditions: dose 6.3 g ai/10 a, evaluated 21st day after application
Method: as §1
(§4) In a plastic pot (surface area: 600 cm^2) filled with sand, cotton (Go), Diaitaria ciliaris (Di), green foxtail (Se), pale smartweed (Po), slender amaranth (Am), common lambsquarters (Ch) and China jute (Ab) were sown and covered with soil. […] The plants were then cultured in a green house, and the evaluation of the herbicidal effects and phytotoxicity was conducted on the 21st day after the application in accordance with the standards as identified in Table 47. Symbol—represents “not tested”.

[12] = system: green foxtail (Se); test: as above; format: in vivo; parameters: scale not given here; conditions: dose 6.3 g ai/10 a, evaluated 21st day after application
Method: as §1, §4

[13] = system: pale smartweed (Po); test: as above; format: in vivo; parameters: scale not given here; conditions: dose 6.3 g ai/10 a, evaluated 21st day after application
Method: as §1, §4

[14] = system: slender amaranth (Am); test: as above; format: in vivo; parameters: scale not given here; conditions: dose 6.3 g ai/10 a, evaluated 21st day after application
Method: as §1, §4

[15] = system: common lambsquarters (Ch); test: as above; format: in vivo; parameters: scale not given here; conditions: dose 6.3 g ai/10 a, evaluated 21st day after application
Method: as §1, §4

[16] = system: bulrush (Sc); test: Test Example 1: herbicidal effects by paddy field soil treatment; format: in vivo; conditions: 100 g of the active ingredient per 10 ares, 21st day after the application, index 0-5 of Table 47;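 further: grade of growth control; 5 = at least 90%; 4 = 70 to 90%; 3 = 50 to 70%; 2 = 30 to 50%; 1 = 10 to 30%; 0 = under 10%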
In short: (§5)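 Herbicidal effect was scored against a graded standard 21 days after treatment. Seeds were sown in puddled, leveled paddy soil flooded to 3 cm depth, and the active ingredient was applied at 100 g per 10 ares before greenhouse culture.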

[17] = system: barnyardgrass (Ec); test: as above; format: in vivo; conditions: 100 g of the active ingredient per 10 ares, 21st day after the application, index 0-5 of Table 47
In short: as §5

[18] = system: monochoria (Mo); test: as above; format: in vivo; conditions: 100 g of the active ingredient per 10 ares, 21st day after the application, index 0-5 of Table 47;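 further: grade of growth control; 5 = at least 90%; 4 = 70 to 90%; 3 = 50 to 70%; 2 = 30 to 50%; 1 = 10 to 30%; 0 = under 10%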
In short: as §5

[19] = system: Diaitaria ciliaris (Di); test: Test Example 3: herbicidal effects by upland field foliage treatment; format: in vivo; parameters: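 grade of growth control; 5 = at least 90%; 4 = 70 to 90%; 3 = 50 to 70%; 2 = 30 to 50%; 1 = 10 to 30%; 0 = under 10%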; conditions: 100 g active ingredient per 10 ares, evaluated 14th day after treatment
In short: (§6)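 Test plants had been raised from seed for 2 weeks in a greenhouse, in soil-covered sand pots of 120 cm^2, and were returned there after spraying.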

[20] = system: rice flatsedge (Ci); test: as above; format: in vivo; parameters: scale not given here; conditions: 100 g active ingredient per 10 ares, evaluated 14th day after treatment
In short: as §6

[21] = system: barnyardgrass (Ec); test: as above; format: in vivo; parameters: scale not given here; conditions: 100 g active ingredient per 10 ares, evaluated 14th day after treatment
In short: as §6

[22] = system: pale smartweed (Po); test: as above; format: in vivo; parameters: scale not given here; conditions: 100 g active ingredient per 10 ares, evaluated 14th day after treatment
In short: as §6

[23] = system: slender amaranth (Am); test: as above; format: in vivo; parameters: scale not given here; conditions: 100 g active ingredient per 10 ares, evaluated 14th day after treatment
In short: as §6

[24] = system: common lambsquarters (Ch); test: as above; format: in vivo; parameters: scale not given here; conditions: 100 g active ingredient per 10 ares, evaluated 14th day after treatment
In short: as §6

[25] = system: cotton (Go); test: Test Example 4: crop plant selectivity by upland field soil treatment (cotton), phytotoxicity; format: in vivo; parameters: scale not given here; conditions: dose 6.3 g ai/10 a, evaluated 21st day after application
Method: as §1, §4

[26] = system: wheat (Tr); test: Test Example 9: crop plant selectivity by upland field foliage treatment (wheat), phytotoxicity; conditions: dose 1.6 g ai/10a, 14th day after treatment;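 further: grade of crop injury; 5 = at least 90%; 4 = 70 to 90%; 3 = 50 to 70%; 2 = 30 to 50%; 1 = 10 to 30%; 0 = under 10%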
Method: (§7) (Test on Crop Plant Selectivity by Upland Field Foliage Treatment)
(§8) In a plastic pot (surface area: 600 cm^2) filled with sand, wheat (Tr), pale smartweed (Po), slender amaranth (Am), common lambsquarters (Ch) and China jute (Ab) were sown and cultured in a green house for 2 weeks. […] The plants were then cultured in a green house, and the evaluation of the herbicidal effects and phytotoxicity was conducted on the 14th day after the treatment in accordance with the standards as identified in Table 47.

[27] = system: China jute (Ab); test: Test Example 9: crop plant selectivity by upland field foliage treatment (wheat), herbicidal effects; format: in vivo; parameters: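 grade of growth control; 5 = at least 90%; 4 = 70 to 90%; 3 = 50 to 70%; 2 = 30 to 50%; 1 = 10 to 30%; 0 = under 10%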; conditions: dose 1.6 g ai/10a, 14th day after treatment
Method: as §7, §8

[28] = system: pale smartweed (Po); test: as above; format: in vivo; parameters: scale not given here; conditions: dose 1.6 g ai/10a, 14th day after treatment
Method: as §7, §8

[29] = system: slender amaranth (Am); test: as above; format: in vivo; parameters: scale not given here; conditions: dose 1.6 g ai/10a, 14th day after treatment
Method: as §7, §8

[30] = system: common lambsquarters (Ch); test: as above; format: in vivo; parameters: scale not given here; conditions: dose 1.6 g ai/10a, 14th day after treatment
Method: as §7, §8

[31] = system: Digitaria ciliaris (Di); test: Test Example 2: herbicidal effects by upland field soil treatment; format: in vivo; conditions: 100 g of the active ingredient per 10 ares, evaluated on the 21st day after application;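 further: grade of growth control; 5 = at least 90%; 4 = 70 to 90%; 3 = 50 to 70%; 2 = 30 to 50%; 1 = 10 to 30%; 0 = under 10%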
Excerpt: (§9) (Test on Herbicidal Effects by Upland Field Soil Treatment)

[32] = system: rice flatsedge (Ci); test: as above; format: in vivo; conditions: 100 g of the active ingredient per 10 ares, evaluated on the 21st day after application
Excerpt: as §9

[33] = system: barnyardgrass (Ec); test: as above; format: in vivo; conditions: 100 g of the active ingredient per 10 ares, evaluated on the 21st day after application
Excerpt: as §9

[34] = system: pale smartweed (Po); test: as above; format: in vivo; conditions: 100 g of the active ingredient per 10 ares, evaluated on the 21st day after application
Excerpt: as §9

[35] = system: slender amaranth (Am); test: as above; format: in vivo; conditions: 100 g of the active ingredient per 10 ares, evaluated on the 21st day after application
Excerpt: as §9

[36] = system: common lambsquarters (Ch); test: as above; format: in vivo; conditions: 100 g of the active ingredient per 10 ares, evaluated on the 21st day after application
Excerpt: as §9

[37] = system: wheat (Tr); test: Test Example 5: crop plant selectivity by upland field soil treatment (wheat), phytotoxicity; format: in vivo; parameters: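 grade of crop injury; 5 = at least 90%; 4 = 70 to 90%; 3 = 50 to 70%; 2 = 30 to 50%; 1 = 10 to 30%; 0 = under 10%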; conditions: dose 6.3 g ai/10a, 21st day after application
Method: as §1, §3

[38] = system: soybean (Gl); test: Test Example 6: crop plant selectivity by upland field soil treatment (soybean), phytotoxicity; format: in vivo; parameters: scale not given here; conditions: dose 6.3 g ai/10a, 21st day after application
Method: as §1, §2

Row | SMILES | Herbicidal effects Ab [1] | Herbicidal effects Se [2] | Herbicidal effects Po [3] | Herbicidal effects Am [4] | Herbicidal effects Ch [5] | Herbicidal effects Ab [6] | Herbicidal effects Se [7] | Herbicidal effects Po [8] | Herbicidal effects Am [9] | Herbicidal effects Ch [10] | Herbicidal effects Ab [11] | Herbicidal effects Se [12] | Herbicidal effects Po [13] | Herbicidal effects Am [14] | Herbicidal effects Ch [15] | Herbicidal effects Sc [16] | Herbicidal effects Ec [17] | Herbicidal effects Mo [18] | Herbicidal effects Di [19] | Herbicidal effects Ci [20] | further results
1 | CCN1C(=O)COc2cc(F)c(-c3ccc(C(F)(F)F)n(C)c3=O)cc21 [Compound 2-15] | 5 | 5 | 5 | 5 | 5 | 5 | 5 | 5 | 5 | 5 | 5 | 5 | 5 | 5 | 5 | 5 | 5 | 5 | 5 | 5 | Herbicidal effects Ec [21]: 5; Herbicidal effects Po [22]: 5; Herbicidal effects Am [23]: 5; Herbicidal effects Ch [24]: 5; Phytotoxicity Go [25]: 0; Phytotoxicity Tr [26]: 2; Herbicidal effects Ab [27]: 5; Herbicidal effects Po [28]: 5; Herbicidal effects Am [29]: 5; Herbicidal effects Ch [30]: 5; Herbicidal effects Di [31]: 5; Herbicidal effects Ci [32]: 5; Herbicidal effects Ec [33]: 5; Herbicidal effects Po [34]: 5; Herbicidal effects Am [35]: 5; Herbicidal effects Ch [36]: 5; Phytotoxicity Tr [37]: 1; Phytotoxicity Gl [38]: 1
2 | C#CCN1C(=O)C(C)Oc2cc(Cl)c(-c3ccc(C(F)(F)F)n(C)c3=O)cc21 (centres unmarked) [Compound No. 2′-1, 3-[7-chloro-2,3-dihyro-2-methyl-4-(2-propynyl)-1,4-benzoxazin-3-on-6-yl]-6-trifluoromethyl-1-methyl-2(1H)-pyridone] | 5 | 5 | 5 | 5 | 5 | 5 | 5 | 5 | 5 | 5 | 5 | 5 | 5 | 5 | 5 | 5 | 5 | 5 | 5 | 5 | Herbicidal effects Ec [21]: 5; Herbicidal effects Po [22]: 5; Herbicidal effects Am [23]: 5; Herbicidal effects Ch [24]: 5; Phytotoxicity Go [25]: 1; Herbicidal effects Di [31]: 5; Herbicidal effects Ci [32]: 5; Herbicidal effects Ec [33]: 5; Herbicidal effects Po [34]: 5; Herbicidal effects Am [35]: 5; Herbicidal effects Ch [36]: 5; Phytotoxicity Tr [37]: 2; Phytotoxicity Gl [38]: 1
